Laboratory results: patent US9290478B2, “Substituted quinoxalines as FGFR kinase inhibitors” (ASTEX THERAPEUTICS LTD, priority 2010, dated 2016)

How the values were obtained:
FGFR4 (h) = FGFR4 (h) (Homo sapiens, UniProt P22455); assay: FGFR4 (enzymatic assay), TR-FRET; format: biochemical; settings: 5 μM ATP; for IC50: read-out: FGFR4 pIC50 (converted)
Method: (§1) In a final reaction volume of 30 μL, FGFR4 (h) (60 ng/ml) was incubated with 50 mM HEPES pH 7.5, 6 mM MnCl2, 1 mM DTT, 0.1 mM Na3VO4, 0.01% Triton-X-100, 500 nM Btn-Flt3 and 5 μM ATP in the presence of compound (1% DMSO final). After incubation for 60 minutes at room temperature the reaction was stopped with 2.27 nM EU-anti P-Tyr, 7 mM EDTA, 31.25 nM SA-XL-665 and 0.02% BSA which was present for 60 minutes at room temperature. Time-Resolved Fluorescence Resonance Energy Transfer (TR-FRET) signal (ex340 nm. Em 620 nm, em 655 nm) was measured afterwards and results are expressed in RFU (Relative Fluorescence Units). In this assay, the inhibitory effect of different compound concentrations (range 10 μM to 0.1 nM) was determined and used to calculate an IC50 (M) and pIC50 (−log IC50) value.

FGFR2 (h) = FGFR2 (h) (Homo sapiens, UniProt P21802); assay: FGFR2 (enzymatic assay), TR-FRET; format: biochemical; settings: 0.4 μM ATP; read-out: FGFR2 pIC50 (converted)
Sequence of FGFR2 (h) (P21802 22-821): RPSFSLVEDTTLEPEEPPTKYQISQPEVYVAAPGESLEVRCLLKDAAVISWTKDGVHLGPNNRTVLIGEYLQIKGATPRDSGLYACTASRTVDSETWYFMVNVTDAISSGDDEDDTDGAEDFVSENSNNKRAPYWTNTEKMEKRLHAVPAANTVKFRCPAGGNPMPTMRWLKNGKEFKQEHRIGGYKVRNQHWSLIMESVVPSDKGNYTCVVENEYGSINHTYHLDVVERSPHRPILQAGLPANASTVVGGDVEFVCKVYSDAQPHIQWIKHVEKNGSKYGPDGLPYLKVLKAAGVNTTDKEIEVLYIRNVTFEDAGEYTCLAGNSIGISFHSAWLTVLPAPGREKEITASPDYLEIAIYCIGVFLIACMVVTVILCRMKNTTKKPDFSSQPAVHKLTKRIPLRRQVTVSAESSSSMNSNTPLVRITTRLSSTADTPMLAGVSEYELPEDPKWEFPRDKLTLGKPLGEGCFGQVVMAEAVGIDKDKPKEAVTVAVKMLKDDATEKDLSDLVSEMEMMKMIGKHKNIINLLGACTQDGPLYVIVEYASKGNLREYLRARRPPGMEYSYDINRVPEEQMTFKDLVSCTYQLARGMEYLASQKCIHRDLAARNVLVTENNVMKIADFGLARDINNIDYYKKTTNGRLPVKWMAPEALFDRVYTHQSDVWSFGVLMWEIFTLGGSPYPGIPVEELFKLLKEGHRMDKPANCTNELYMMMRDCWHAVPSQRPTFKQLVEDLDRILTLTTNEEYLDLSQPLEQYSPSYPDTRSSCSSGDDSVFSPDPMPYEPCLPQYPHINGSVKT
Method: as §1, with “μL, FGFR2” for “μL, FGFR4”, “(h) (150” for “(h) (60”, “and 0.4” for “and 5”, “in” for “in RFU”

FGFR3 (h) = FGFR3 (h) (Homo sapiens, UniProt P22607); assay: FGFR3 (enzymatic assay), TR-FRET; format: biochemical; settings: 25 μM ATP; read-out: FGFR3 pIC50 (converted)
Sequence of FGFR3 (h) (P22607 23-806): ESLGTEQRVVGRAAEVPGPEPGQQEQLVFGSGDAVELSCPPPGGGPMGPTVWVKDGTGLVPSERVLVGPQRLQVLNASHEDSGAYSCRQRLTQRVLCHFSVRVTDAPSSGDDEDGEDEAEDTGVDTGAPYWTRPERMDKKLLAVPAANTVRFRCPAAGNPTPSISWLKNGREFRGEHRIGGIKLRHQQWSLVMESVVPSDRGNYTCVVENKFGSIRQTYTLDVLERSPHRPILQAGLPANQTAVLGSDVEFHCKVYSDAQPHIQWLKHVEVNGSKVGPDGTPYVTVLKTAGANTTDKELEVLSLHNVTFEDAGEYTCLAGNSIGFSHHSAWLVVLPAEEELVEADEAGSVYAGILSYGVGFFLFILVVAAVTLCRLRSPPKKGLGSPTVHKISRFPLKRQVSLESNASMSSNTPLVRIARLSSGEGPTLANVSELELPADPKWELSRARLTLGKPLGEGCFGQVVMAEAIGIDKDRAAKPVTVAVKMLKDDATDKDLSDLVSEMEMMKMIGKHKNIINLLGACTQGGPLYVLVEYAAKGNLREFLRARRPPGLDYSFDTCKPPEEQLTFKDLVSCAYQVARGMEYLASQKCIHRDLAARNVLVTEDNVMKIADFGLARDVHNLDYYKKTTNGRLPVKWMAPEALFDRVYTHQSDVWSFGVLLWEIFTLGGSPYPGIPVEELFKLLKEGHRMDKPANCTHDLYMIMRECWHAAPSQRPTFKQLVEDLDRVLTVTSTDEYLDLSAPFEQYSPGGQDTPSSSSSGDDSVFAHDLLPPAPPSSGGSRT
Method: as §1, with “μL, FGFR3” for “μL, FGFR4”, “(h) (40” for “(h) (60”, “and 25” for “and 5”

KDR (h) (VEGFR2) = KDR (h) (VEGFR2) (Homo sapiens, UniProt P35968); assay: KDR (VEGFR2) (enzymatic assay), TR-FRET; format: biochemical; settings: 3 μM ATP; for IC50: read-out: VEGFR2 (KDR) pIC50 (converted)
Sequence of KDR (h) (VEGFR2) (P35968 20-1356): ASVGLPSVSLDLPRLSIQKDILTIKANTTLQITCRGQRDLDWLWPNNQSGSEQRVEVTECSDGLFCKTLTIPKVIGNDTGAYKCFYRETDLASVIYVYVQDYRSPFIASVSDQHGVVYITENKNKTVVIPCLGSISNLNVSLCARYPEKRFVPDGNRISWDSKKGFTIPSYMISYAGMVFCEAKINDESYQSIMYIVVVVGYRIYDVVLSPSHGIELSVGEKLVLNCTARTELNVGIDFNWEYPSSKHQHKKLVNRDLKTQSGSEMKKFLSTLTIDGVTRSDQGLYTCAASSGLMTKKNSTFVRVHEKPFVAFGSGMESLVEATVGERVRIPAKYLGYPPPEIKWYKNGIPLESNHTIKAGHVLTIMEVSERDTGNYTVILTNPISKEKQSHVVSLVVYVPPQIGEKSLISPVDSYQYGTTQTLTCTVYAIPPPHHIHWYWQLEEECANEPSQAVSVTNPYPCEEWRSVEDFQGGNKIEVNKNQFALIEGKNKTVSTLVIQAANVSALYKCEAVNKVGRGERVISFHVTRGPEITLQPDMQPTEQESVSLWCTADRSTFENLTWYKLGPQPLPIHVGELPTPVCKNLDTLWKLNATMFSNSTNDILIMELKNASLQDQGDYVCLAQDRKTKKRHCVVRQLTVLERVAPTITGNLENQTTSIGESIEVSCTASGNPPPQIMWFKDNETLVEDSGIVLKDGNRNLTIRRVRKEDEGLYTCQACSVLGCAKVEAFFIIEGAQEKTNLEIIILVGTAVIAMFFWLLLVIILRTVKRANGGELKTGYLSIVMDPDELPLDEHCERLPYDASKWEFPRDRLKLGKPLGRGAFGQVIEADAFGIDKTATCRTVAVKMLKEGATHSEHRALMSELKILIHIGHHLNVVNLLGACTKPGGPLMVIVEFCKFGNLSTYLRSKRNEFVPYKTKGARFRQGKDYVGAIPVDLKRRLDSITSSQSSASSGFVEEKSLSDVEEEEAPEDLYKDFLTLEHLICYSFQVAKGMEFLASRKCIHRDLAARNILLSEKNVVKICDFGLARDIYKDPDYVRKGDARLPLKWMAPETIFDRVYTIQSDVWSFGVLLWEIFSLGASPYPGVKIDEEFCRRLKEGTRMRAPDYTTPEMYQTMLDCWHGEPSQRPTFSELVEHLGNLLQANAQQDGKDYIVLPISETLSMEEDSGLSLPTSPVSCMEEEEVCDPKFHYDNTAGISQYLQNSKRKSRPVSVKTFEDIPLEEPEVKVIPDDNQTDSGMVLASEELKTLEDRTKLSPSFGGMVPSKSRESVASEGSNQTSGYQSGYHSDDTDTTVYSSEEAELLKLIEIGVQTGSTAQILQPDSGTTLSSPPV
Method: KDR (VEGFR2) (Enzymatic Assay)
as §1, with “30 μL, KDR (h) (150” for “30 μL, FGFR4 (h) (60”, “KDR (h) (150 ng/ml) was” for “FGFR4 (h) (60 ng/ml) was”, “Btn-Flt3 and 3 μM ATP” for “Btn-Flt3 and 5 μM ATP”, “incubation for 120 minutes at” for “incubation for 60 minutes at”

[1] = tested on: Ba/F3-FGFR3-transfected cells; assay: Ba/F3-FGFR3 (minus IL3 or plus IL3) cellular proliferation assay; format: cell-based; settings: plus 10 ng/ml murine IL3 (counterscreen); for IC50: 24 h, read-out: BAF3-FGFR3 (PLUS IL3) pIC50 (converted)
Method: (§2) Ba/F3-FGFR3 (Minus IL3 or Plus IL3) (Cellular Proliferation Assay)
(§3) In a 384 well plate, 100 nI of compound dilution in DMSO was sprayed before adding 50 μl cell culture medium (phenol red free RPMI-1640, 10% FBS, 2 mM L-Glutamine and 50 μg/ml Gentamycin) containing 20000 cells per well of Ba/F3-FGFR3-transfected cells. Cells were put in an incubator at 37° C. and 5% CO2. After 24 hours, 10 μl of Alamar Blue solution (0.5 mM K3Fe(CN)6, 0.5 mM K4Fe(CN)6, 0.15 mM Resazurin and 100 mM Phosphate Buffer) was added to the wells, incubated for 4 hours at 37° C. and 5% CO2 before RFU's (Relative Fluorescence Units) (ex. 540 nm., em. 590 nm.) were measured in a fluororescence plate reader.
(§4) In this assay, the inhibitory effect of different compound concentrations (range 10 μM to 0.1 nM) was determined and used to calculate an IC50 (M) and pIC50 (−log IC50) value. As a counterscreen the same experiment was performed in the presence of 10 ng/ml murine IL3.

[2] = molecular target: T1, Ba/F3-FGFR3-transfected cells (Homo sapiens, UniProt P22607); assay: as above; format: cell-based; settings: minus IL3
T1 construct: BAF3-FGFR3 (MIN IL3) pIC50; other: minus IL3
T1 sequence (P22607 whole entry, change not shown): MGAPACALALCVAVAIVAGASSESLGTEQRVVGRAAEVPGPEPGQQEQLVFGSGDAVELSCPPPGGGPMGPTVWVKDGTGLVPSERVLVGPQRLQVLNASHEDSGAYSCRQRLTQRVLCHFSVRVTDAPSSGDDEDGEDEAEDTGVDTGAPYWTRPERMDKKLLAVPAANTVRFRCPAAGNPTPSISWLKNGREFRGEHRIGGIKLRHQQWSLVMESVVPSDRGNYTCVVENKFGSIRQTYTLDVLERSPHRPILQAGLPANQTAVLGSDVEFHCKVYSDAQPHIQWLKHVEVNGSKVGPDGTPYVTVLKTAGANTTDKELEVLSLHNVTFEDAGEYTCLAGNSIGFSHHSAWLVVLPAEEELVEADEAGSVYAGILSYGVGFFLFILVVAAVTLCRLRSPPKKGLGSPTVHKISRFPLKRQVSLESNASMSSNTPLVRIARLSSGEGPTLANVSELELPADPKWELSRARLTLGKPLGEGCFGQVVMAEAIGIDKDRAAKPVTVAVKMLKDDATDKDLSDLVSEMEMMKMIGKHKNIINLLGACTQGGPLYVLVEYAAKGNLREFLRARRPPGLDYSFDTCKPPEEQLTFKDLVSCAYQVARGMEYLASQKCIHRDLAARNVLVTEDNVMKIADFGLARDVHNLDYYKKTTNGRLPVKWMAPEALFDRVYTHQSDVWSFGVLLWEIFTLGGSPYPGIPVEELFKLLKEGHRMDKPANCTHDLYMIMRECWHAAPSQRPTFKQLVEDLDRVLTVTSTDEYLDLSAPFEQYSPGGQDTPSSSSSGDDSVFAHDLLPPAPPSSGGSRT
Method: as §2, §3, §4

Sequence of FGFR4 (h) (P22455 22-802): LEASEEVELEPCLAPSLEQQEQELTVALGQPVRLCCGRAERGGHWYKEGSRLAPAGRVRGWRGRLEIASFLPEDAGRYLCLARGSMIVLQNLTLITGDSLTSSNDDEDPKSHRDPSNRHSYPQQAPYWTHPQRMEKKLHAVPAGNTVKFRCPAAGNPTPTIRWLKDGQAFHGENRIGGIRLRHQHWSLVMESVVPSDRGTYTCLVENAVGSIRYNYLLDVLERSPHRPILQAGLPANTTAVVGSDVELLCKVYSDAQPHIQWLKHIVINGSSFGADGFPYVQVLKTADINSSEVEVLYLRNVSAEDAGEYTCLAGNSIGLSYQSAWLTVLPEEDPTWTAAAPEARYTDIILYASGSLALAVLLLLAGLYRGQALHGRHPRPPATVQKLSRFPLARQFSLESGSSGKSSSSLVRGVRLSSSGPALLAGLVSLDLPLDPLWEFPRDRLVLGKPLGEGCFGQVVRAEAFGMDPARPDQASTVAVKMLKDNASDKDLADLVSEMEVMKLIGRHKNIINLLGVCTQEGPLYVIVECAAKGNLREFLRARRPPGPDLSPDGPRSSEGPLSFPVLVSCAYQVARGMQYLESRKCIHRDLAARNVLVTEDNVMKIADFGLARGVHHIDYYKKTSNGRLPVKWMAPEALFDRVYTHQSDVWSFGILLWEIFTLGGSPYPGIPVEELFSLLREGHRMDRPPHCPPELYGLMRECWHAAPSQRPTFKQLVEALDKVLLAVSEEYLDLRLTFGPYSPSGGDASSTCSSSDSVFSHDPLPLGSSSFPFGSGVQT

Row | SMILES | IC50 (FGFR4 (h)) | IC50 (FGFR2 (h)) | IC50 (FGFR3 (h)) | IC50 (KDR (h) (VEGFR2)) | IC50 [1] | BAF3-FGFR3 (MIN IL3) pIC50 [2] | BAF3-FGFR3 (PLUS IL3) pIC50 [1] | FGFR4 pIC50 (FGFR4 (h)) | VEGFR2 (KDR) pIC50 (KDR (h) (VEGFR2))
1 | COc1cc(OC)cc(C(O)(CNCCNC(C)C)c2ccc3ncc(-c4cnn(C)c4)nc3c2)c1 (single isomer, unassigned) [Compound 5] | > 1 µM | ~0.741 µM | 0.575 µM | > 1 µM | > 10 µM | <5 |  |  | 
2 | COc1cc(OC)cc(C(O)(CNCCNC(C)C)c2ccc3ncc(-c4cnn(C)c4)nc3c2)c1 (single isomer, unassigned) [Compound 6] |  | 0.813 µM | 0.676 µM |  |  | <5 |  |  | 
3 | COc1cc(OC)cc(C(CCNC(C)C)c2ccc3ncc(-c4cnn(C)c4)nc3c2)c1 (single isomer, unassigned) [Compound 19a] | 0.145 µM | 0.0178 µM | 0.0214 µM | > 1 µM | > 10 µM | 6.67 |  |  | 
4 | COc1cc(OC)cc(C(NCCNC(C)C)c2ccc3ncc(-c4cnn(C)c4)nc3c2)c1.Cl (single isomer, unassigned) [Compound 24] | > 1 µM | 0.324 µM | 0.257 µM | > 1 µM | > 10 µM | 5.29 |  |  | 
5 | COc1cc(OC)cc(C(CCNC(C)C)c2ccc3ncc(-c4cnn(C)c4)nc3c2)c1 (single isomer, unassigned) [Compound 32a] | 5.5 µM | 0.851 µM | ~0.912 µM | > 10 µM |  | ~5.03 | <5 |  | 
6 | CNCC(O)(c1cc(OC)cc(OC)c1)c1ccc2ncc(-c3cnn(C)c3)nc2c1.Cl (single isomer, unassigned) [Compound 37] | > 1 µM | 0.589 µM | 0.537 µM | > 1 µM | > 10 µM | <5 |  |  | 
7 | CNCC(O)(c1cc(OC)cc(OC)c1)c1ccc2ncc(-c3cnn(C)c3)nc2c1.Cl (single isomer, unassigned) [Compound 38] |  | > 1 µM | > 1 µM |  |  | <5 | <5 | <6 | <6
8 | COc1cc(OC)cc(C(NCCNC(C)C)c2ccc3ncc(-c4cnn(C)c4)nc3c2)c1.Cl (single isomer, unassigned) [Compound 39] |  | > 1 µM | > 1 µM |  |  | <5 | <5 | <6 | <6
9 | COc1cc(OC)cc(C(=O)c2ccc3ncc(-c4cnn(C)c4)nc3c2)c1 [Compound 2] | ~10 µM | 0.209 µM | 0.0661 µM | 0.708 µM | > 10 µM | 5.17 |  |  | 
10 | COc1cc(OC)cc(/C(=C/C#N)c2ccc3ncc(-c4cnn(C)c4)nc3c2)c1 [Compound 3] | > 10 µM | 5.13 µM | 2.19 µM | 3.98 µM | > 10 µM | 5.29 |  |  | 
11 | COc1cc(OC)cc(/C(=C\C#N)c2ccc3ncc(-c4cnn(C)c4)nc3c2)c1 [Compound 4] | 0.363 µM | 0.102 µM | 0.0363 µM | 0.661 µM | > 10 µM | 5.76 |  |  | 
12 | COc1cc(OC)cc(C(CCN2CCCC2=O)c2ccc3ncc(-c4cnn(C)c4)nc3c2)c1.Cl (stereo not drawn) [Compound 7] | 0.158 µM | 0.038 µM | ~0.0126 µM | 0.347 µM | > 10 µM | 5.8 |  |  | 
13 | COc1cc(OC)cc(/C(=C\CNC(C)C)c2ccc3ncc(-c4cnn(C)c4)nc3c2)c1 [Compound 8, {(Z)-3-(3,5-Dimethoxy-phenyl)-3-[3-(1-methyl-1H-pyrazol-4-yl)-quinoxalin-6-yl]-allyl}-isopropyl-amine] | 0.126 µM | 0.0107 µM | 0.00871 µM | 0.389 µM | > 10 µM | 6.72 |  |  | 
14 | COc1cc(OC)cc(/C(=C/CNC(C)C)c2ccc3ncc(-c4cnn(C)c4)nc3c2)c1 [Compound 9] | 1.48 µM | 0.0871 µM | 0.123 µM | 4.47 µM | > 10 µM | 6.82 |  |  | 
15 | COc1cc(OC)cc(/C(=C\CN(C)C)c2ccc3ncc(-c4cnn(C)c4)nc3c2)c1 [Compound 10, {(Z)-3-(3,5-Dimethoxy-phenyl)-3-[3-(1-methyl-1H-pyrazol-4-yl)-quinoxalin-6-yl]-allyl}-dimethyl-amine] | 0.107 µM | 0.0158 µM | 0.00912 µM | > 1 µM | > 10 µM | 6.27 |  |  | 
16 | COc1cc(OC)cc(/C(=C\CNCC(F)(F)F)c2ccc3ncc(-c4cnn(C)c4)nc3c2)c1 [Compound 14, {(Z)-3-(3,5-Dimethoxy-phenyl)-3-[3-(1-methyl-1H-pyrazol-4-yl)-quinoxalin-6-yl]-allyl}-(2,2,2-trifluoro-ethyl)-amine] | 0.0288 µM | 0.0129 µM | 0.00468 µM | 0.245 µM | > 10 µM | 6.39 |  |  | 
17 | COc1cc(OC)cc(C(CC#N)c2ccc3ncc(-c4cnn(C)c4)nc3c2)c1 (stereo not drawn) [Compound 18] | 0.182 µM | 0.145 µM | 0.0437 µM | > 1 µM | > 10 µM | 5.48 |  |  | 
18 | COc1cc(OC)cc(C(CCN)c2ccc3ncc(-c4cnn(C)c4)nc3c2)c1.Cl (stereo not drawn) [Compound 20] | 0.447 µM | 0.0676 µM | 0.0617 µM | 4.68 µM | > 10 µM | 6.04 |  |  | 
19 | COc1cc(OC)cc(C(CCN(C)C)c2ccc3ncc(-c4cnn(C)c4)nc3c2)c1.Cl (stereo not drawn) [Compound 21] | 0.355 µM | 0.0676 µM | 0.0676 µM | > 1 µM | > 10 µM | 6.32 |  |  | 
